# Patent US7538112B2, “HIV integrase inhibitors” (Merck & Co., Inc., priority 2004, dated 2009)
# System: viruses containing mutations in the integrase gene (T66I/S153Y, N155S, and F121Y)
# Assay: Sensitivity of viruses containing integrase mutations associated with resistance to other integrase inhibitors
# Type: cell-based, HIV
# Excerpt: In preclinical laboratory experiments, it has been possible to select viruses resistant to integrase inhibitors in structural classes other than those embraced by the present invention, such as diketo acids, naphthyridine carboxamides, and dihydropyrimidine carboxamides. Mutations in the integrase gene that confer resistance (defined herein as greater than or equal to a 10-fold loss of sensitivity) to such compounds include T66I/S153Y, N155S, and F121Y. Certain compounds of the present invention have less than a 10-fold loss in sensitivity against viruses containing these and other mutations associated with resistance to other integrase inhibitors, and thus can be effective inhibitors of such viruses. Compounds of the present invention which are effective against such viruses include, for example, the compounds of Examples 37, 50, 56, 62, 69, 86, 87, 88, 151, 153, 159-A, 159-B, 166, 189, 193, and 205.
row,SMILES,effective against viruses with integrase resistance mutations
1,"CCN1CC(CO)n2c(c(O)c3c(=O)n(Cc4ccc(F)cc4)nc(C)c32)C1=O (racemic) [Example 56, 8-Ethyl-2-(4-fluorobenzyl)-10-hydroxy-4-methyl-6-(hydroxymethyl)-7,8-dihydropyrazino[1′,2′:1,5]pyrrolo[2,3-d]pyridazine-1,9(2H,6H)-dione]",effective
2,"CCN1CC(C)n2c(c(O)c3c(=O)n(Cc4ccc(F)c(Cl)c4)nc(N(CC)S(C)(=O)=O)c32)C1=O (racemic) [Example 159-B, N-[2-(3-Chloro-4-fluorobenzyl)-10-hydroxy-8-ethyl-6-methyl-1,9-dioxo-1,2,6,7,8,9-hexahydropyrazino[1′,2′:1,5]pyrrolo[2,3-d]pyridazin-4-yl]-N-ethylmethanesulfonamide]",effective
3,"Cc1nn(Cc2ccc(F)cc2)c(=O)c2c(O)c3n(c12)C(C)CN(C)C3=O (stereo not shown) [Example 37, 2-(4-Fluorobenzyl)-10-hydroxy-4,6,8-trimethyl-7,8-dihydropyrazino[1′,2′:1,5]-pyrrolo[2,3-d]pyridazine-1,9(2H,6H)-dione]",effective
4,"Cc1nn(Cc2ccc(F)cc2)c(=O)c2c(O)c3n(c12)[C@@H](C)CN(C(C)C)C3=O [Example 50, 6(S)-2-(4-Fluorobenzyl)-10-hydroxy-8-isopropyl-4,6-dimethyl-7,8-dihydropyrazino[1′,2′:1,5]pyrrolo[2,3-d]pyridazine-1,9(2H,6H)-dione]",effective
5,"CCN1C[C@H](C)n2c(c(O)c3c(=O)n(Cc4ccc(F)c(Cl)c4)nc(C(=O)NC)c32)C1=O [Example 62, 6(S)-2-(3-Chloro-4-fluorobenzyl)-8-ethyl-10-hydroxy-N,6-dimethyl-1,9-dioxo-1,2,6,7,8,9-hexahydropyrazino[1′,2′:1,5]pyrrolo[2,3-d]pyridazine-4-carboxamide]",effective
6,"CCNC(=O)c1nn(Cc2ccc(F)c(Cl)c2)c(=O)c2c(O)c3n(c12)CCN(C)C3=O [Example 69, 2-(3-Chloro-4-fluorobenzyl)-N-ethyl-10-hydroxy-8-methyl-1,9-dioxo-1,2,6,7,8,9-hexahydropyrazino[1′,2′:1,5]pyrrolo[2,3-d]pyridazine-4-carboxamide]",effective
7,"CCNC(=O)c1nn(Cc2ccc(F)c(Cl)c2)c(=O)c2c(O)c3n(c12)[C@@H](C)CN(C(C)C)C3=O [Example 86, 6(S)-2-(3-Chloro-4-fluorobenzyl)-10-hydroxy-8-isopropyl-N-ethyl-6-methyl-1,9-dioxo-1,2,6,7,8,9-hexahydropyrazino[1′,2′:1,5]pyrrolo[2,3-d]pyridazine-4-carboxamide]",effective
8,"CCNC(=O)c1nn(Cc2ccc(F)cc2)c(=O)c2c(O)c3n(c12)[C@@H](C)CN(C(C)C)C3=O [Example 87, 6(S)-2-(4-Fluorobenzyl)-10-hydroxy-8-isopropyl-N-ethyl-6-methyl-1,9-dioxo-1,2,6,7,8,9-hexahydropyrazino[1′,2′:1,5]pyrrolo[2,3-d]pyridazine-4-carboxamide]",effective
9,"CC(C)N1C[C@H](C)n2c(c(O)c3c(=O)n(Cc4ccc(F)c(Cl)c4)nc(C(=O)N(C)C)c32)C1=O [Example 88, 6(S)-2-(3-Chloro-4-fluorobenzyl)-10-hydroxy-8-isopropyl-N,N,6-trimethyl-1,9-dioxo-1,2,6,7,8,9-hexahydropyrazino[1′,2′:1,5]pyrrolo[2,3-d]pyridazine-4-carboxamide]",effective
10,"CCN1C[C@H](C)n2c(c(O)c3c(=O)n(Cc4ccc(F)c(Cl)c4)nc(N(C)S(C)(=O)=O)c32)C1=O [Example 151, N-[(6S)-2-(3-Chloro-4-fluorobenzyl)-10-hydroxy-8-ethyl-6-methyl-1,9-dioxo-1,2,6,7,8,9-hexahydropyrazino[1′,2′:1,5]pyrrolo[2,3-d]pyridazin-4-yl]-N-methylmethanesulfonamide]",effective
11,"CC(C)N1C[C@H](C)n2c(c(O)c3c(=O)n(Cc4ccc(F)c(Cl)c4)nc(N(C)S(C)(=O)=O)c32)C1=O [Example 153, N-[(6S)-2-(3-Chloro-4-fluorobenzyl)-10-hydroxy-8-isopropyl-6-methyl-1,9-dioxo-1,2,6,7,8,9-hexahydropyrazino[1′,2′:1,5]pyrrolo[2,3-d]pyridazin-4-yl]-N-methylmethanesulfonamide]",effective
12,"CC(C)N1C[C@H](C)n2c(c(O)c3c(=O)n(Cc4ccc(F)cc4)nc(N(C)S(C)(=O)=O)c32)C1=O [Example 159-A, N-[(6S)-2-(4-Fluorobenzyl)-10-hydroxy-8-isopropyl-6-methyl-1,9-dioxo-1,2,6,7,8,9-hexahydropyrazino[1′,2′:1,5]pyrrolo[2,3-d]pyridazin-4-yl]-N-methylmethanesulfonamide]",effective
13,"CCN1C[C@H](C)n2c(c(O)c3c(=O)n(Cc4ccc(F)c(Cl)c4)nc(S(=O)(=O)CC)c32)C1=O [Example 166, 6(S)-2-(3-Chloro-4-fluorobenzyl)-8-ethyl-10-hydroxy-4-(ethylsulfonyl)-6-methyl-7,8-dihydropyrazino[1′,2′:1,5]pyrrolo[2,3-d]pyridazine-1,9(2H,6H)-dione]",effective
14,"CCN1C[C@H](C)n2c(c(O)c3c(=O)n(Cc4ccc(F)c(Cl)c4)ncc32)C1=O [Example 189, 6(S)-2-(3-Chloro-4-fluorobenzyl)-10-hydroxy-8-ethyl-6-methyl-7,8-dihydropyrazino[1′,2′:1,5]pyrrolo[2,3-d]pyridazine-1,9(2H,6H)-dione]",effective
15,"CC(C)N1C[C@H](C)n2c(c(O)c3c(=O)n(Cc4ccc(F)cc4)ncc32)C1=O [Example 193, 6(S)-2-(4-Fluorobenzyl)-10-hydroxy-8-isopropyl-6-methyl-7,8-dihydropyrazino[1′,2′:1,5]pyrrolo[2,3-d]pyridazine-1,9(2H,6H)-dione]",effective
16,"CCN1CC(CO)n2c(c(O)c3c(=O)n(Cc4ccc(F)cc4)ncc32)C1=O (stereo not shown) [Example 205, 2-(4-Fluorobenzyl)-10-hydroxy-8-ethyl-6-hydroxymethyl-7,8-dihydropyrazino[1′,2′:1,5]pyrrolo[2,3-d]pyridazine-1,9(2H,6H)-dione]",effective
